Read-outs that look alike come from different tables or passages of the source.
Legend:
[1] = test system: CP4; assay: CP4 expression in stably transformed maize callus carrying a theophylline "off" "trans" riboswitch; type: cell-based; conditions: transformed cells treated with theophylline
Text: "trans" riboswitches, similarly to the "cis" riboswitches described in Examples […], are useful in regulating transgenes. In a specific example, a transgenic plant including a "trans" riboswitch designed to regulate the glyphosate-resistance transgene CP4 as the target sequence is particularly useful in "trans" riboswitch-controlled applications parallel to that described in Example 23 (glyphosate as a ligand for ligand-activated herbicide resistance, or for control of herbicide resistant volunteers) and Example 24 (glyphosate as a chemical hybridization agent). To illustrate this approach, CP4 expression is suppressed in stably transformed maize callus. A modified transcribable DNA encoding an "off' "trans" riboswitch with theophylline as its ligand (Bayer and Smolke (2005) Nature Biotechnol., 23:337-343) is designed to target CP4 as a target sequence. Transcription of the theophylline riboswitch can be driven either by a pol II promoter (e. g., Figure 27A) or by pol III promoter (e. g., Figure 27B). The transcribable DNA is inserted into a binary vector (Figure 30) and co-transformed into maize callus under nptIII selection, generating stably transformed maize callus lines. CP4 expression is assayed in the transformed cells, where CP4 expression is observed to be suppressed in transformed cells that are treated with theophylline.

[2] = test system: LKR/SDH; assay: LKR/SDH expression in transformed maize cells carrying a theophylline "off" "trans" riboswitch; type: cell-based; conditions: transformed cells treated with theophylline
Procedure: Similarly, a "trans" riboswitch is used to control expression of an endogenous target sequence (lysine ketoglutarate reductase/saccharopine dehydrogenase gene, LKR/SDH) in stably transformed maize plants. A modified transcribable DNA encoding an "off' "trans" riboswitch with theophylline as its ligand (Bayer and Smolke (2005) Nature Biotechnol., 23:337-343) is designed to target at least one region of the LKR/SDH sequence, and co-transformed into maize callus. LKR/SDH expression is assayed in the resulting transformed cells, where LKR/SDH expression is observed to be suppressed in transformed cells that are treated with theophylline.

[3] = molecular target: bacterial lysine riboswitches; conditions: in vitro, Sudarsan et al. (2003), cited from earlier work

Compound	CP4 expression [1]	LKR/SDH expression [2]	Kd ([3]; read-out: Kd) [µM]	Kd ([3]; same value given in ppm) [ppm]
Cn1c(=O)c2[nH]cnc2n(C)c1=O [theophylline]	suppressed	suppressed		
NCCCC[C@H](N)C(=O)O [lysine]			~1000	~128

Reference: patent EP2765189A1, “Recombinant DNA constructs and methods for controlling gene expression” (Monsanto Technology LLC, priority 2004, dated 2006)
